Test results taken from the NIST ThermoML archive (doi:10.1016/j.jct.2004.09.015).

Conditions: Liquid, Closed cell (Static) method

CC(=O)N(C)C [N,N-dimethylethanamide]
Conditions | vapor or sublimation pressure [kPa]
323.15 K | 1.158
333.15 K | 1.982
343.15 K | 3.271
353.15 K | 5.193
363.15 K | 8
373.15 K | 12
383.15 K | 17.55
393.15 K | 25.03
403.15 K | 35.04
413.15 K | 48.09
423.15 K | 64.73
